The results in this text go back to PubChem BioAssay (NCI).

Experiment in all cases: NCI tumour cell line growth inhibition, 48 h
Experiment [1] has as its system SK-MEL-2 melanoma.
The test system of experiment [2] is TK-10 renal.
For experiment [3], the system named is KM12 colon.
For experiment [4], the system named is UACC-257 melanoma.
The subject of experiment [5] is SF-295 CNS.
In experiment [6] the test system is SNB-75 CNS.
Experiment [7] relates to HOP-62 NSCLC.
Experiment [8] concerns MALME-3M melanoma.
Experiment [9] has as its system SK-MEL-28 melanoma.
In experiment [10] the test system is T-47D breast.

The structures appear in SMILES notation. Where “and” joins values, the source holds several entries; their conditions need not be identical. Equal values may be shown once.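 1) Cells in 96-well plates. 2) Compound, 48 h, 5 concentrations. 3) Linear interpolation between surrounding doses. 4) Unreached endpoint = highest concentration. Here, GI50 denotes the concentration required for 50% inhibition of growth. TGI is the concentration that stops growth completely.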

For the compound `CCc1ccccc1NC(=O)/C(N=O)=C(/C)O`, the TGI in experiment [1], in experiment [2], in [3], in experiment [4], in experiment [5] and in experiment [6] was above 100 µM in each case. Further, the TGI in experiment [7], in [8] and in experiment [9] was above 100 µM each time.
With `COc1cccc(NC(=O)CC(=O)N2N=C(n3ccc4ccccc43)CC2c2ccccc2)c1` (stereo not given), the TGI in experiment [1], in experiment [2], in experiment [3], in [4], in experiment [5] and in experiment [6] was above 100 µM each time. Besides, the TGI in experiment [7], in experiment [8] and in experiment [9] was above 100 µM throughout.
Consider `N#CNC(=NCCc1c[nH]c2ccccc12)Oc1ccccc1`, for which the TGI in experiment [2], in experiment [3], in experiment [4], in [5], in experiment [6] and in experiment [7] was above 100 µM in each case. This compound displayed a TGI in experiment [9] above 100 µM.
`NC(=O)NC12CC3CC(CC(F)(C3)C1)C2`: the TGI in experiment [1], in experiment [2], in experiment [3], in experiment [4], in [6] and in experiment [7] was above 100 µM throughout. Further, the TGI in [8] and in experiment [9] was above 100 µM throughout.
Regarding `O=C1c2ccccc2N2Oc3ccccc3C12c1ccccc1` (stereo not given), the TGI in experiment [4], in experiment [5], in experiment [6], in [7], in experiment [8] and in experiment [9] was above 100 µM in each case.
Consider `COc1cc(C2c3cc4c(cc3[C@@H](NCCN3CCOCC3)C3COC(=O)[C@H]23)OCO4)cc(OC)c1O` (stereo not given in full), for which the TGI in [1] was 14.5 µM and 11.3 µM; in [2], 21.7 µM and > 17.5 µM; in [3], 12.1 µM and > 17.5 µM; in [4], 32.9 µM and > 17.5 µM; in [5], 13.5 µM and 17.4 µM; in experiment [6], 1.8 µM and 11.6 µM. For the same compound, the TGI in [7] was 2.71 µM and 3.8 µM; in experiment [8], 11.2 µM and 14.2 µM; in [9] it was 16.6 µM and > 17.5 µM.
In the case of `CC(=O)Oc1ccc2c3c1O[C@H]1[C@H](O)CC[C@@]4(O)[C@@H](C2)N(C)CC[C@]314`, the TGI in experiment [1], in [2], in experiment [3], in experiment [4], in experiment [5] and in [7] was above 100 µM each time. Further, the TGI in [8], in [9] and in [10] was above 100 µM each time.
For the compound `Cc1ccc(N(C)S(=O)(=O)c2ccccc2[N+](=O)[O-])cc1`, the TGI in experiment [1], in [2], in [3], in [4], in [5] and in experiment [7] was above 100 µM throughout. Also, the TGI in [8], in [9] and in experiment [10] was above 100 µM in each case.
`COC(=O)C12OC3CO[Si](C(C)C)(C(C)C)O[Si](C(C)C)(C(C)C)OC3C1Oc1nc(=O)ccn12` (stereo not given): the TGI in [1] worked out at 31.6 µM; in experiment [2], 30.9 µM; in experiment [3], 29.2 µM; in [4], 29.1 µM; in experiment [5], 29.6 µM; in [7] it was 32.2 µM. The TGI in experiment [8] is 28.1 µM; in experiment [9] it was 30.4 µM; in [10], 33 µM.
For the compound `C#CC1(O)CCCCCCCCC2(CCCCCCCC1)OCCO2`, the TGI amounted to 27.9 µM in [1]; 37 µM in experiment [2]; 34.6 µM in experiment [3]; 39.2 µM in experiment [4]; 34.7 µM in experiment [5]; 44.5 µM in experiment [7]. Besides, the values for the TGI in experiment [8], in [9] and in experiment [10] were 34.3 µM, 35.1 µM and 33.8 µM, respectively.
Regarding `CC[C@@]1(O)C(=O)OCc2c1cc1n(c2=O)Cc2c-1nc1ccccc1c2/C=N/NC(=O)c1ccc(N)cc1`, the TGI in experiment [1] is above 100 µM; in [2] it was above 100 µM; in experiment [3], above 75.9 µM; in [4], above 100 µM; in experiment [5] it was 14.7 µM; in experiment [7], 1.61 µM. Further, the TGI in [8] is above 87.8 µM; in experiment [9], above 100 µM; in [10], 0.389 µM.
As to `Cc1cc(S(=O)(=O)/N=C(\[N-]S(=O)(=O)c2cc(Cl)sc2Cl)[n+]2ccc(N(C)C)cc2)c(S)cc1Cl`, the TGI in [1], in experiment [2], in experiment [3], in experiment [4], in experiment [5] and in [7] was above 100 µM throughout. Also, the TGI in experiment [9] and in experiment [10] was above 100 µM each time.
For the compound `CCc1cccc(C)c1NC(=O)C1=C(C)NC(C)=C(C(=O)Nc2c(C)cccc2CC)C1c1ccc2c(c1)OCO2`, the TGI in [1] is 29.6 µM; in experiment [2], 80.1 µM; in [3], 30.9 µM; in experiment [4] it was 46.3 µM; in [5] it was 43.7 µM; in [6], 91.9 µM. Also, the TGI in [7] stood at 36.9 µM; in [8], 30.5 µM; in experiment [9], 32.7 µM.
Turning to `CC(Oc1ccc(OCC2CCCCC2)cc1)C(=O)NCc1ccco1` (stereo not given), the TGI was 59.3 µM in experiment [1]; above 100 µM in experiment [2]; above 100 µM in experiment [3]; 70.4 µM in experiment [4]; above 100 µM in experiment [6]; 58.7 µM in experiment [8]. Also, the TGI in experiment [9] is above 100 µM.
As for `CCOc1ccc(NC(=O)C(=O)C(C(=O)c2ccc3ccccc3c2)C2OC(=O)c3ccccc32)cc1` (stereo not given), the TGI in [1] is 37.2 µM; in [2], above 100 µM; in experiment [3], above 100 µM; in [4], 81.9 µM; in experiment [6] it was 64.9 µM; in experiment [7] it was 39.4 µM. For the same compound, the TGI in experiment [8] worked out at 77.4 µM; in experiment [9], 37.5 µM.
For `COc1ccc(CC2(Cc3ccc(OC)cc3)CCOC2=O)cc1`, the TGI in [1] is above 100 µM; in [2] it was above 100 µM; in experiment [3] it was above 100 µM; in experiment [4] it was above 100 µM; in experiment [5], above 100 µM; in experiment [6], 48.9 µM. For the same compound, the TGI in [7], in experiment [8] and in experiment [9] was above 100 µM in each case.
`COc1ccc(-c2oc3c(OC)c(OC)cc(O)c3c(=O)c2OC)cc1`: the TGI in [1], in experiment [2], in experiment [3], in experiment [4], in experiment [5] and in experiment [7] was above 100 µM each time. Besides, the TGI in experiment [8], in experiment [9] and in [10] was above 100 µM each time.
In the case of `CNC1(C(=O)O)CC1`, the TGI in experiment [2], in experiment [3], in experiment [4], in experiment [5], in experiment [7] and in experiment [8] was above 100 µM in each case. In addition, the TGI in experiment [9] and in [10] was above 100 µM throughout.
For the compound `CNc1nc(C(N)=O)c(N)s1`, the TGI in experiment [1], in experiment [2], in experiment [3], in [4], in experiment [5] and in [7] was above 100 µM in each case. The TGI in [8], in experiment [9] and in [10] was above 100 µM each time.
Consider `COc1cc2c(cc1OC)[C@@H](Nc1ccc(F)cc1)C1COC(=O)[C@@H]1C2c1cc(OC)c(O)c(OC)c1` (stereo not given in full), for which the TGI in experiment [1] was above 60.9 µM; in experiment [2], 63 µM; in [3], above 64.5 µM; in experiment [4], above 79.6 µM; in [5], 6.28 µM; in [6] it was above 48 µM. In addition, the values for the TGI in experiment [7], in experiment [8] and in experiment [9] were 2.49 µM, above 88.8 µM and above 100 µM, respectively.
`CCN(CC)c1oc(N(CC)CC)c(C(=O)Nc2ccccn2)c(=O)c1C(C)=O`: the TGI in experiment [1], in experiment [2], in experiment [3], in experiment [6], in experiment [7] and in experiment [8] was above 100 µM in each case. Further, the TGI in experiment [9] is above 100 µM.
On to `COc1ccc2nc3cc(Cl)ccc3c(SCC(=O)Nc3ccccc3-c3ccccc3NC(=O)CSc3c4ccc(Cl)cc4nc4ccc(OC)cc34)c2c1`, for which the TGI in experiment [1], in experiment [2], in [3], in [4], in experiment [5] and in experiment [6] was above 100 µM throughout. Further, the TGI in [7], in experiment [8] and in experiment [9] was above 100 µM in each case.
On to `CC(C)Oc1c(-c2ccc(F)cc2)c(O)c2c3c1oc(=O)n3C=CC2C` (stereo not given), for which the TGI in [1] was 53.3 µM; in experiment [2], 30.7 µM; in [3], 34.3 µM; in experiment [4] it was 26.3 µM; in experiment [5] it was 34.6 µM; in experiment [6], 31.3 µM. The values for the TGI in experiment [7], in [8] and in [9] were 28.6 µM, 91.1 µM and 30.9 µM, respectively.
With `COc1cccc(/C=C2\S/C(=N/Nc3nc(-c4ccc([N+](=O)[O-])cc4)cs3)NC2=O)c1O`, the TGI in experiment [2] is 67.6 µM; in [3] it was 26.9 µM; in experiment [4], 71.2 µM; in [5], 38.7 µM; in [7], 34.1 µM; in experiment [8], 42.3 µM. The results for the TGI in experiment [9] and in experiment [10] were 39.5 µM and 27.5 µM, respectively.
In the case of `COc1ccccc1C1c2cc3c(cc2OC(N2CCOCC2)C1C)OCO3` (stereo not given), the TGI in [1] was 37.3 µM; in experiment [2] it was above 100 µM; in [3], 39.6 µM; in experiment [4] it was 36.9 µM; in [5], 35.5 µM; in experiment [7], 35.3 µM. For the same compound, the TGI came to 32.6 µM in [9] and 78.3 µM in [10].
`COC1=C(C)C(=O)c2c(cc3c(c2O)C(C)(CCC=C(C)C)C(C)O3)C1=O` (stereo not given): the TGI in [1] was above 60.8 µM; in [2] it was above 100 µM; in experiment [3], above 100 µM; in experiment [4], above 100 µM; in [5], 52.7 µM; in experiment [6], 37.1 µM. Further, the TGI was 34.1 µM in experiment [7], above 100 µM in experiment [8] and above 100 µM in experiment [9].
In the case of `CCOC1CC(C)N(C(=O)c2ccccc2)O1` (stereo not given), the TGI in experiment [2], in experiment [3], in experiment [5], in experiment [7], in experiment [9] and in experiment [10] was above 100 µM in each case.
Turning to `CSc1nc2c(c(=O)[nH]1)N=C(c1ccccc1)CC(c1ccccc1)N2` (stereo not given), the TGI was 76.7 µM in experiment [1]; 29.2 µM in experiment [3]; above 100 µM in experiment [4]; above 100 µM in [5]; 44.6 µM in experiment [6]; above 100 µM in experiment [7]. Also, the TGI in [8] was 75.6 µM; in experiment [9], above 100 µM.
As to `CC(=O)O[C@H]1CCC2[C@@H]3CCC4c5nonc5CC[C@]4(C)C3CC[C@@]21C` (stereo not given in full), the GI50 is above 100 µM in experiment [1], above 100 µM in experiment [3], above 10 µM in experiment [6] and above 100 µM in [8]. For the same compound, the TGI in experiment [1] was above 100 µM; in [2], above 10 µM; in experiment [3], above 100 µM; in experiment [4], above 10 µM; in experiment [5], above 10 µM; in experiment [6] it was above 100 µM. The TGI in experiment [7] was above 10 µM; in experiment [8] it was above 100 µM; in experiment [9], above 10 µM.
Take `CC1(C)N=C(C2CCCN2C(=O)OCc2ccccc2)OC1=O` (stereo not given): the TGI in [1], in experiment [2], in [3], in [4], in experiment [5] and in experiment [6] was above 100 µM in each case. Besides, the TGI in experiment [7], in [8] and in [9] was above 100 µM each time.
